Assay results from the supplement of paper PMC13380429.
± gives the standard deviation of the averaged measurements.

How the values were obtained:
Calu-3 [1] = assay: drug sensitivity score (DSS) for viability; higher = more toxic; extreme values may be limits of the assay; details: 72 h
U2OS [2] = assay: as above; details: 72 h
HepG2 [3] = assay: as above; details: 72 h
Vero E6 [4] = assay: as above; details: 72 h
Caco-2 [5] = assay: as above; details: 72 h
Calu-3 [6] = assay: cell viability relative to DMSO; higher = less toxic; details: 72 h
U2OS [7] = assay: as above; details: 72 h
HepG2 [8] = assay: as above; details: 72 h
Vero E6 [9] = assay: as above; details: 72 h
Caco-2 [10] = assay: as above; details: 72 h
Calu-3 [11] = assay: relative viability EC50 (midpoint between 100% and the lowest measured viability); higher = less toxic; details: 72 h
U2OS [12] = assay: as above; details: 72 h
HepG2 [13] = assay: as above; details: 72 h
Vero E6 [14] = assay: as above; details: 72 h
Caco-2 [15] = assay: as above; details: 72 h
[16] = system: A549-ACE2 infected with SARS-CoV-2; assay: morphology score (similarity to uninfected cells); higher = more like uninfected cells; details: 24 h
[17] = system: A549-ACE2 infected with SARS-CoV-2; assay: SARS-CoV-2 infection rate relative to DMSO; higher = more infection; details: 24 h
A549-ACE2 [18] = assay: phospholipidosis EC50; higher = less potent phospholipidosis inducer
A549-ACE2 [19] = assay: drug-induced phospholipidosis relative to tamoxifen; higher = more phospholipidosis
[20] = system: A549-ACE2 infected with SARS-CoV-2; assay: cell count relative to DMSO; higher = less toxic; details: 24 h

CC(=O)OCC(=O)[C@@]12OC(C)(C)O[C@@H]1C[C@H]1[C@@H]3C[C@H](F)C4=CC(=O)C=C[C@]4(C)[C@@]3(F)[C@@H](O)C[C@@]12C [fluocinonide]
Details | drug sensitivity score | relative viability EC50 [µM]
Caco-2 [5] | 0 | –
Caco-2 [15] | – | > 10
Calu-3 [1] | 0 | –
Calu-3 [11] | – | > 10
HepG2 [3] | 0 | –
HepG2 [13] | – | > 10
U2OS [2] | 0 | –
U2OS [12] | – | > 10
Vero E6 [4] | 0 | –
Vero E6 [14] | – | > 10

cell viability [%]
Details | Caco-2 [10] | Calu-3 [6] | HepG2 [8] | U2OS [7] | Vero E6 [9]
1 nM | 91.5 | 102 ± 7.5 | 100 ± 2.5 | 98.5 ± 1.5 | 101 ± 7.7
10 nM | 95.6 | 97.2 ± 6 | 95.5 ± 6 | 96 ± 3.3 | 93.6 ± 0.57
100 nM | 93.8 | 87.8 ± 1.1 | 101 ± 8.3 | 95.2 ± 1.4 | 97.9 ± 13
1000 nM | 104 | 98.2 ± 3.8 | 104 ± 1.2 | 96.7 ± 4.4 | 96.7 ± 5.4
10000 nM | 99.2 | 101 ± 3.7 | 100 ± 6.2 | 98.7 ± 4.3 | 98.5 ± 2.8

CC(C)Oc1ccc(-c2cnc3c(-c4ccnc5ccccc45)cnn3c2)cc1 [DMH1]
Details | drug sensitivity score | relative viability EC50 [µM]
Caco-2 [5] | 0 | –
Caco-2 [15] | – | > 10
Calu-3 [1] | 0 | –
Calu-3 [11] | – | > 10
HepG2 [3] | 0 | –
HepG2 [13] | – | > 10
U2OS [2] | 0 | –
U2OS [12] | – | > 10
Vero E6 [4] | 0 | –
Vero E6 [14] | – | > 10

cell viability [%]
Details | Caco-2 [10] | Calu-3 [6] | HepG2 [8] | U2OS [7] | Vero E6 [9]
1 nM | 108 | 117 | 104 | 103 | 95.4
10 nM | 93.7 | 102 | 103 | 100 | 104
100 nM | 102 | 105 | 100 | 98.4 | 98.2
1000 nM | 95.9 | 108 | 96.8 | 94.4 | 104
10000 nM | 95.6 | 96.4 | 90 | 89.8 | 104

Nc1ccc(C(=O)Nc2cccc(-c3nc(N4CCOCC4)c4oc5ncccc5c4n3)c2)cn1
Details | SARS-CoV-2 infection rate [%] | cell count [%] | cell viability [%] | morphology score | phospholipidosis EC50 [µM]
A549-ACE2 [18], 24 h | – | – | – | – | 6.01
A549-ACE2 [18], 48 h | – | – | – | – | 7.56
A549-ACE2 [18], 72 h | – | – | – | – | 4.36
Caco-2 [10], 1 nM | – | – | 95.4 | – | –
Caco-2 [10], 10 nM | – | – | 97 | – | –
Caco-2 [10], 100 nM | – | – | 101 | – | –
Caco-2 [10], 1000 nM | – | – | 87.1 | – | –
Caco-2 [10], 10000 nM | – | – | 80 | – | –
Calu-3 [6], 1 nM | – | – | 101 | – | –
Calu-3 [6], 10 nM | – | – | 96.1 | – | –
Calu-3 [6], 100 nM | – | – | 100 | – | –
Calu-3 [6], 1000 nM | – | – | 96.5 | – | –
Calu-3 [6], 10000 nM | – | – | 94.8 | – | –
HepG2 [8], 1 nM | – | – | 109 | – | –
HepG2 [8], 10 nM | – | – | 99.6 | – | –
HepG2 [8], 100 nM | – | – | 88.3 | – | –
HepG2 [8], 1000 nM | – | – | 50.5 | – | –
HepG2 [8], 10000 nM | – | – | 61.6 | – | –
Vero E6 [9], 1 nM | – | – | 99.9 | – | –
Vero E6 [9], 10 nM | – | – | 100 | – | –
Vero E6 [9], 100 nM | – | – | 96.4 | – | –
Vero E6 [9], 1000 nM | – | – | 95.9 | – | –
Vero E6 [9], 10000 nM | – | – | 91.9 | – | –
[16], 0.3 µM | – | – | – | 0.31 | –
[16], 3 µM | – | – | – | 0.45 | –
[16], 10 µM | – | – | – | 0.08 | –
[16], 30 µM | – | – | – | -0.12 | –
[17], 0.3 µM | 90 | – | – | – | –
[17], 3 µM | 47 | – | – | – | –
[17], 10 µM | 63 | – | – | – | –
[17], 30 µM | 110 | – | – | – | –
[20], 0.3 µM | – | 100 | – | – | –
[20], 3 µM | – | 102 | – | – | –
[20], 10 µM | – | 101 | – | – | –
[20], 30 µM | – | 78 | – | – | –

Details | drug sensitivity score | relative viability EC50 [µM]
Caco-2 [5] | 1.8 | –
Caco-2 [15] | – | > 10
Calu-3 [1] | 0 | –
Calu-3 [11] | – | > 10
HepG2 [3] | 10.9 | –
Vero E6 [4] | 0 | –
Vero E6 [14] | – | > 10

drug-induced phospholipidosis [%], A549-ACE2 [19]
Details | 0.3 µM | 0.833333 µM | 3.33333 µM | 6.66667 µM | 10 µM | 30 µM
24 h | 4.2 | 16.4 | 72 | 146 | 132 | 202
48 h | 8.45 | 22.8 | 79.6 | 121 | 135 | 188
72 h | 8 | 24.5 | 107 | 162 | – | 231
